Reference: patent US8227406B2, “Antimicrobial peptides” (Dermagen AB, priority 2006, dated 2012)
“And” between values parts separate entries of the source, which are not always exact repeats. Identical values can stand only once.

Columns and labels:
[1] = test system: Eschericia coli ATCC25922; assay: Radial diffusion assay (RDA), E. coli; type: cell-based, Escherichia coli; set-up: Data (RDA antimicrobial activity, single replicates) / Mean (RDA antimicrobial activity): unit not given here; conditions: for Data (RDA antimicrobial activity, single replicates) / Mean (RDA antimicrobial activity): E. coli; for Data (RDA antimicrobial activity, single replicates): individual replicate; for Mean (RDA antimicrobial activity): mean of 3
Protocol: (§1) Peptides. Peptides were from Sigma-Genosys, generated by a peptide synthesis platform (PEPscreen®, Custom Peptide Libraries, SigmaGenosys). Yield was ˜1-6 mg, and peptide length 20 amino acids. MALDI-ToF Mass Spectrometry was perfomed on these peptides. Average Crude Purity of 20mers was ˜60%. Peptides were supplied lyophilized and in a 96-well tube rack. Prior to biological testing the PEPscreen peptides were diluted in dH2O (5 mM stock), and stored at −20 C. This stock solution was used for the subsequent experiments.
(§2) Eschericia coli ATCC25922, Staphylococcus aureus ATCC29213, and the fungal isolate Candida albicans ATCC90028 were obtained from the Department of Bacteriology, Lund University Hospital.
(§3) Radial diffusion assays (RDA) were performed essentially as described earlier (Lehrer, R. I., Rosenman, M., Harwig, S. S., Jackson, R. & Eisenhauer, P. (1991) Ultrasensitive assays for endogenous antimicrobial polypeptides, J Immunol Methods. 137, 167-73). Briefly, bacteria (E. coli, S. aureus) or fungi (C. albicans) were grown to midlogarithmic phase in 10 ml of full-strength (3% w/v) trypticase soy broth (TSB) (Becton-Dickinson, Cockeysville, Md.). The microorganisms were washed once with 10 mM Tris, pH 7.4. 4×10^6 bacterial cfu or 1×10^5 fungal cfu was added to 5 ml of the underlay agarose gel, consisting of 0.03% (w/v) TSB, 1% (w/v) low-electroendoosmosistype (Low-EEO) agarose (Sigma, St Louise Mo.) and a final concentration of 0.02% (v/v) Tween 20 (Sigma). The underlay was poured into a Ø 85 mm petri dish. After agarose solidified, 4 mm-diameter wells were punched and 6 μl of test sample was added to each well. Plates were incubated at 37° C. for 3 hours to allow diffusion of the peptides. The underlay gel was then covered with 5 ml of molten overlay (6% TSB and 1% Low-EEO agarose in dH2O). Antimicrobial activity of a peptide is visualized as a clear zone around each well after 18-24 hours of incubation at 37° C. for bacteria and 28° C. for Candida albicans. Other examples of peptides that were screened and found to show an increased effect against the above mentioned microorgansism are listed below. Some of the results are found in table 1c showing the effects against C. albicans, table 1d E. coli and table 1e S. aureus.

[2] = test system: Staphylococcus aureus ATCC29213; assay: Radial diffusion assay (RDA), S. aureus; type: cell-based; set-up: Data (RDA antimicrobial activity, single replicates) / Mean (RDA antimicrobial activity): unit not given here; conditions: for Data (RDA antimicrobial activity, single replicates) / Mean (RDA antimicrobial activity): S. aureus; for Data (RDA antimicrobial activity, single replicates): individual replicate; for Mean (RDA antimicrobial activity): mean of 3
Protocol: as §1, §2, §3

[3] = test system: Candida albicans ATCC90028; assay: Radial diffusion assay (RDA), C. albicans; type: cell-based; set-up: unit not given here; conditions: for RDA Mean, C. albicans / RDA Data (single replicates), C. albicans: Table 1c; for RDA Data (single replicates), C. albicans: individual values
Protocol: as §1, §2, §3

erythrocytes = assay: Hemolysis assay; type: cell-based; conditions: % of TritonX-100 induced hemolysis; erythrocytes 1 h at 37° C.; peptides (3-60 μM)
Protocol: EDTA-blood was centrifuged at 800 g for 10 min, whereafter plasma and buffy coat were removed. The erythrocytes were washed three times and resuspended in 5% PBS, pH 7.4. The cells were then incubated with end-over-end rotation for 1 h at 37° C. in the presence of peptides (3-60 μM). 2% Triton X-100 (Sigma-Aldrich) served as positive control. The samples were then centrifuged at 800 g for 10 min. The absorbance of hemoglobin release was measured at λ 540 nm and is in the plot expressed as % of TritonX-100 induced hemolysis (Table 1a).

[4] = Table 1b, 10 mM Tris Hcl (pH 7.4)

Molecule: CC[C@H](C)[C@H](NC(=O)[C@H](CCCCN)NC(=O)[C@H](CCC(=O)O)NC(=O)[C@H](CCCCN)NC(=O)[C@H](CO)NC(=O)[C@H](CCCCN)NC(=O)[C@H](CCCNC(=N)N)NC(=O)[C@H](Cc1ccccc1)NC(=O)[C@H](Cc1ccccc1)NC(=O)[C@H](CC(=O)O)NC(=O)CNC(=O)[C@H](CC(C)C)NC(=O)[C@@H](N)CC(C)C)C(=O)NCC(=O)N[C@@H](CCCCN)C(=O)N[C@@H](CCC(=O)O)C(=O)N[C@@H](Cc1ccccc1)C(=O)N[C@@H](CCCCN)C(=O)N[C@@H](CCCNC(=N)N)C(=O)N[C@H](C(=O)N[C@H](C(=O)N[C@@H](CCC(N)=O)C(=O)N[C@@H](CCCNC(=N)N)C(=O)N[C@H](C(=O)N[C@@H](CCCCN)C(=O)N[C@@H](CC(=O)O)C(=O)N[C@@H](Cc1ccccc1)C(=O)N[C@@H](CC(C)C)C(=O)N[C@@H](CCCNC(=N)N)C(=O)N[C@@H](CC(N)=O)C(=O)N[C@@H](CC(C)C)C(=O)N[C@H](C(=O)N1CCC[C@H]1C(=O)N[C@@H](CCCNC(=N)N)C(=O)N[C@H](C(=O)N[C@@H](CCC(=O)O)C(=O)N[C@@H](CO)C(=O)O)[C@@H](C)O)C(C)C)[C@@H](C)CC)C(C)C)[C@@H](C)CC [LL-37, reference compound]
- E.coli ATCC 25922 Mean, Ingrowth* counted ([1]; Table 1a, RDA clear zone, ingrowth counted): 6.53
- E.coli ATCC 25922 Mean, Ingrowth not counted ([1]; Table 1a, RDA clear zone, ingrowth not counted): 0.653
- RDA values (mm) E. coli ATCC 25922 [1, 4]: 7.55 mm
- S. aureus ATCC 29213 Mean ([2]; Table 1a, RDA clear zone): 4.660
- RDA values (mm) S. aureus ATCC 29213 [2, 4]: 3.23 mm
- Candida albicans ATCC 90028 Mean ([3]; Table 1a, RDA clear zone): 4.890
- Hemolysis (%) Mean (erythrocytes): 21.464%

Molecule: PKRKKKGGKNGKNRRNRKKKNWWW [PKR-21-WWW]
- Data (RDA antimicrobial activity, single replicates) ([1]; peptide 0.1 μM): 0
- Mean (RDA antimicrobial activity) ([1]; peptide 0.1 μM): 0.00
- Data (RDA antimicrobial activity, single replicates) ([1]; peptide 0.5 μM): 1.26 and 1.05 and 0.84
- Mean (RDA antimicrobial activity) ([1]; peptide 0.5 μM): 1.05
- Data (RDA antimicrobial activity, single replicates) ([1]; peptide 1 μM): 3.6 and 2.59 and 3.49
- Mean (RDA antimicrobial activity) ([1]; peptide 1 μM): 3.23
- Data (RDA antimicrobial activity, single replicates) ([1]; peptide 5 μM): 4.99 and 5.03 and 4.75
- Mean (RDA antimicrobial activity) ([1]; peptide 5 μM): 4.92
- Data (RDA antimicrobial activity, single replicates) ([1]; peptide 10 μM): 5.86 and 5.87 and 6.13
- Mean (RDA antimicrobial activity) ([1]; peptide 10 μM): 5.95
- Data (RDA antimicrobial activity, single replicates) ([1]; peptide 50 μM): 7.71 and 7.97 and 6.98
- Mean (RDA antimicrobial activity) ([1]; peptide 50 μM): 7.55
- Data (RDA antimicrobial activity, single replicates) ([1]; peptide 100 μM): 7.34 and 8.26 and 7.99
- Mean (RDA antimicrobial activity) ([1]; peptide 100 μM): 7.86
- Data (RDA antimicrobial activity, single replicates) ([2]; peptide 0.1 μM): 0
- Mean (RDA antimicrobial activity) ([2]; peptide 0.1 μM): 0.00
- Data (RDA antimicrobial activity, single replicates) ([2]; peptide 0.5 μM): 0
- Mean (RDA antimicrobial activity) ([2]; peptide 0.5 μM): 0.00
- Data (RDA antimicrobial activity, single replicates) ([2]; peptide 1 μM): 2.56 and 2.59 and 3.06
- Mean (RDA antimicrobial activity) ([2]; peptide 1 μM): 2.74
- Data (RDA antimicrobial activity, single replicates) ([2]; peptide 5 μM): 2.98 and 2.5 and 3.07
- Mean (RDA antimicrobial activity) ([2]; peptide 5 μM): 2.85
- Data (RDA antimicrobial activity, single replicates) ([2]; peptide 10 μM): 3.53 and 4.06 and 3.83
- Mean (RDA antimicrobial activity) ([2]; peptide 10 μM): 3.81
- Data (RDA antimicrobial activity, single replicates) ([2]; peptide 50 μM): 4.21 and 5.14 and 4.23
- Mean (RDA antimicrobial activity) ([2]; peptide 50 μM): 4.53
- Data (RDA antimicrobial activity, single replicates) ([2]; peptide 100 μM): 4.77 and 5.67 and 5.02
- Mean (RDA antimicrobial activity) ([2]; peptide 100 μM): 5.15
- RDA Mean, C. albicans ([3]; peptide 0.1 μM): 0.00
- RDA Data (single replicates), C. albicans ([3]; peptide 0.1 μM): 0.00
- RDA Mean, C. albicans ([3]; peptide 0.5 μM): 0.00
- RDA Data (single replicates), C. albicans ([3]; peptide 0.5 μM): 0.00
- RDA Mean, C. albicans ([3]; peptide 1 μM): 0.49
- RDA Data (single replicates), C. albicans ([3]; peptide 1 μM): 0.55 and 0.42 and 0.51
- RDA Mean, C. albicans ([3]; peptide 5 μM): 1.14
- RDA Data (single replicates), C. albicans ([3]; peptide 5 μM): 1.26 and 1.06 and 1.10
- RDA Mean, C. albicans ([3]; peptide 10 μM): 3.11
- RDA Data (single replicates), C. albicans ([3]; peptide 10 μM): 3.54 and 2.82 and 2.97
- RDA Mean, C. albicans ([3]; peptide 50 μM): 5.47
- RDA Data (single replicates), C. albicans ([3]; peptide 50 μM): 5.84 and 5.44 and 5.13
- RDA Mean, C. albicans ([3]; peptide 100 μM): 6.97
- RDA Data (single replicates), C. albicans ([3]; peptide 100 μM): 6.69 and 7.04 and 7.19
